US9163256B2, “Mutant receptors and their use in a nuclear receptor-based inducible gene expression system” (priority 2004, dated 2015)
pEC50: −log10 of the molar value. Like-named read-outs stand apart in the source and are kept apart here.

How the values were obtained:
Assay in all cases: cell-based
CfEcR-DEF mutant V96E = CfEcR-DEF mutant V96E (Choristoneura fumiferana, UniProt O77255, V379E)
Procedure: (§1) This construct was prepared in the same way as in switch 1.1 above except wild-type CfEcR-DEF was replaced with mutant CfEcR-DEF comprising a ligand binding domain comprising a substitution mutation selected from Table 1 below.
(§2) DNAs were transfected into mouse NIH3T3 cells (ATCC) as follows. Standard methods for culture and maintenance of the cells were followed. Cells were harvested and plated 96-well plates at 2,500 cells per well, in 50 μL of growth medium containing 10% fetal bovine serum (FBS). Twenty-four hours later, the cells were treated with 35 μL of serum-free growth medium containing either dimethylsulfoxide (DMSO; control) or a DMSO solution of ligand. The cells were then transfected using Superfect (Qiagen Inc.) transfection reagent. For each well, 0.625 μL of Superfect was mixed with 14.2 μL of serum-free growth medium. 0.16 μg of reporter construct and 0.04 μg of each receptor construct were added to the transfection reagent mix. The contents of the transfection mix were mixed in a vortex mixer and let stand at room temperature for 30 minutes. At the end of incubation, 15 μL of transfection mix was added to the cells. The cells were maintained at 37° C. and 5% CO2 for 48 hours in 5% FBS.
(§3) Reporter Assays: Cells were harvested 40 hours after adding ligands. 125 μL of passive lysis buffer (part of Dual-Luciferase reporter assay system from Promega Corporation) were added to each well of the […] plate. The plates were placed on a rotary shaker for 15 minutes. Twenty μL of lysate were assayed. Luciferase activity was measured using Dual-Luciferase reporter assay system from Promega Corporation following the manufacturer's instructions. Fold induction (FI) activities were calculated by dividing relative light units (“RLU”) in ligand treated cells with RLU in DMSO treated cells (untreated control).

CfEcR-DEF mutant F109M = CfEcR-DEF mutant F109M (Choristoneura fumiferana, UniProt O77255, F392M)
Procedure: as §1, §2, §3

CfEcR-DEF mutant W238E = CfEcR-DEF mutant W238E (Choristoneura fumiferana, UniProt O77255, W521E)
Procedure: as §1, §2, §3

CfEcR-DEF mutant F48W = CfEcR-DEF mutant F48W (Choristoneura fumiferana, UniProt O77255, F331W)
Procedure: as §1, §2, §3

CfEcR-DEF mutant T52P = CfEcR-DEF mutant T52P (Choristoneura fumiferana, UniProt O77255, T335P)
Procedure: as §1, §2, §3

CfEcR-DEF mutant V128F = CfEcR-DEF mutant V128F (Choristoneura fumiferana, UniProt O77255, V411F)
Procedure: as §1, §2, §3

CfEcR-DEF mutant Y120M = CfEcR-DEF mutant Y120M (Choristoneura fumiferana, UniProt O77255, Y403M)
Procedure: as §1, §2, §3

CfEcR-DEF mutant F48Y = CfEcR-DEF mutant F48Y (Choristoneura fumiferana, UniProt O77255, F331Y)
Procedure: as §1, §2, §3

CfEcR-DEF mutant A110N = CfEcR-DEF mutant A110N (Choristoneura fumiferana, UniProt O77255, A393N)
Procedure: as §1, §2, §3

CfEcR-DEF mutant F109L = CfEcR-DEF mutant F109L (Choristoneura fumiferana, UniProt O77255, F392L)
Procedure: as §1, §2, §3

CfEcR-DEF mutant R95W = CfEcR-DEF mutant R95W (Choristoneura fumiferana, UniProt O77255, R378W)
Procedure: as §1, §2, §3

CfEcR-DEF mutant F109N = CfEcR-DEF mutant F109N (Choristoneura fumiferana, UniProt O77255, F392N)
Procedure: as §1, §2, §3

CfEcR-DEF mutant L234I = CfEcR-DEF mutant L234I (Choristoneura fumiferana, UniProt O77255, L517I)
Procedure: as §1, §2, §3

CfEcR-DEF mutant V96L = CfEcR-DEF mutant V96L (Choristoneura fumiferana, UniProt O77255, V379L)
Procedure: as §1, §2, §3

CfEcR-DEF mutant A110P = CfEcR-DEF mutant A110P (Choristoneura fumiferana, UniProt O77255, A393P)
Procedure: as §1, §2, §3

CfEcR-DEF mutant M125P = CfEcR-DEF mutant M125P (Choristoneura fumiferana, UniProt O77255, M408P)
Procedure: as §1, §2, §3

CfEcR-DEF mutant T52L = CfEcR-DEF mutant T52L (Choristoneura fumiferana, UniProt O77255, T335L)
Procedure: as §1, §2, §3

CfEcR-DEF mutant F109W = CfEcR-DEF mutant F109W (Choristoneura fumiferana, UniProt O77255, F392W)
Procedure: as §1, §2, §3

CfEcR-DEF mutant M54T = CfEcR-DEF mutant M54T (Choristoneura fumiferana, UniProt O77255, M337T)
Procedure: as §1, §2, §3

CfEcR-DEF mutant V96S = CfEcR-DEF mutant V96S (Choristoneura fumiferana, UniProt O77255, V379S)
Procedure: as §1, §2, §3

[1] = NIH3T3, 40 h, read-out: Rel Max FI

Sequence of CfEcR-DEF mutant F109M (O77255 entry or part of it F392M): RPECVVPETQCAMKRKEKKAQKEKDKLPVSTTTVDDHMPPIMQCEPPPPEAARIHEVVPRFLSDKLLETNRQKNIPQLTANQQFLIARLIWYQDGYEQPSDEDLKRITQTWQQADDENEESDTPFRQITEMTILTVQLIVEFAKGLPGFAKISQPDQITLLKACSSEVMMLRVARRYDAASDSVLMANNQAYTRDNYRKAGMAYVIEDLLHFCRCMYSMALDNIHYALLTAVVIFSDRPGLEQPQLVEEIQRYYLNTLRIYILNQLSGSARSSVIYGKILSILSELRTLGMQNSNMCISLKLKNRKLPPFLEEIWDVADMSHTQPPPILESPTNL
Sequence of CfEcR-DEF mutant F109M (P28702 299-449, further chain): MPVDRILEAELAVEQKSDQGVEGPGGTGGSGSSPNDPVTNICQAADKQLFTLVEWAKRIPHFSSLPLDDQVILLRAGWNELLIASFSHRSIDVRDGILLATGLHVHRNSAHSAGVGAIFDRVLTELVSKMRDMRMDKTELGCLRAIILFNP
Sequence of CfEcR-DEF mutant V96L (O77255 entry or part of it V379L): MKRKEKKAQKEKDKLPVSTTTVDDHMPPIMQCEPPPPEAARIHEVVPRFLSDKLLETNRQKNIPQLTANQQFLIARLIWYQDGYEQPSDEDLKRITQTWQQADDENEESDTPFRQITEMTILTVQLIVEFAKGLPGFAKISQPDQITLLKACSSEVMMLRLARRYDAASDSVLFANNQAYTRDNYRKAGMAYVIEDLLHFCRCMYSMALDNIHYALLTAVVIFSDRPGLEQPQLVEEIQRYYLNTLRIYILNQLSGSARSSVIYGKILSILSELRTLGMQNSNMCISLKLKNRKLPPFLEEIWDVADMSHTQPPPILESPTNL
Sequence of CfEcR-DEF mutant V96L (P28702 299-449, further chain): as the sequence (P28702 299-449, further chain) above
Sequence of CfEcR-DEF mutant F48Y (O77255 entry or part of it F331Y): as the sequence (O77255 entry or part of it F392M) above, with F125Y, M186F counted along it
Sequence of CfEcR-DEF mutant F48Y (P28702 299-449, further chain): as the sequence (P28702 299-449, further chain) above
Sequence of CfEcR-DEF mutant F109W (O77255 entry or part of it F392W): as the sequence (O77255 entry or part of it F392M) above, with M186W counted along it
Sequence of CfEcR-DEF mutant F109W (P28702 299-449, further chain): as the sequence (P28702 299-449, further chain) above
Sequence of CfEcR-DEF mutant V96E (O77255 entry or part of it V379E): as the sequence (O77255 entry or part of it V379L) above, with L161E counted along it
Sequence of CfEcR-DEF mutant V96E (P28702 299-449, further chain): as the sequence (P28702 299-449, further chain) above
Sequence of CfEcR-DEF mutant A110N (O77255 entry or part of it A393N): as the sequence (O77255 entry or part of it F392M) above, with M186F, A187N counted along it
Sequence of CfEcR-DEF mutant A110N (P28702 299-449, stated change not applied, further chain): as the sequence (P28702 299-449, further chain) above
Sequence of CfEcR-DEF mutant R95W (O77255 entry or part of it R378W): as the sequence (O77255 entry or part of it V379L) above, with R160W, L161V counted along it
Sequence of CfEcR-DEF mutant R95W (P28702 299-449, further chain): as the sequence (P28702 299-449, further chain) above
Sequence of CfEcR-DEF mutant A110P (O77255 entry or part of it A393P): as the sequence (O77255 entry or part of it F392M) above, with M186F, A187P counted along it
Sequence of CfEcR-DEF mutant A110P (P28702 299-449, stated change not applied, further chain): as the sequence (P28702 299-449, further chain) above
Sequence of CfEcR-DEF mutant T52L (P28702 298-449): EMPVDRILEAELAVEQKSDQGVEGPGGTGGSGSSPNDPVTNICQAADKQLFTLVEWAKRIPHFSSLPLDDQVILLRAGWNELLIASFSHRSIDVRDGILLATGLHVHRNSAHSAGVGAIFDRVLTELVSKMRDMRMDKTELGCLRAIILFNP
Sequence of CfEcR-DEF mutant T52L (O77255 entry or part of it T335L): as the sequence (O77255 entry or part of it F392M) above, with T129L, M186F counted along it

With CC(C)CC[C@@H](O)[C@](C)(O)[C@H]1CC[C@@]2(O)C3=CC(=O)[C@@H]4C[C@@H](O)[C@@H](O)C[C@]4(C)[C@H]3CC[C@]12C [PonA, ponasterone A] the “Rel Max FI” value (CfEcR-DEF mutant V96E; mutant V96E) was 0.02, the pEC50 (CfEcR-DEF mutant V96E; mutant V96E, read-out: EC50) was less than 4.48 and the pEC50 (CfEcR-DEF mutant F109M; mutant F109M, read-out: EC50) was roughly 4.70. The “Rel Max FI” value (CfEcR-DEF mutant F109M; mutant F109M, relative to max fold induction of GS-E ligand) was 0.16, the “Rel Max FI” value (CfEcR-DEF mutant W238E; mutant W238E) was 0 and the pEC50 (CfEcR-DEF mutant W238E; mutant W238E, read-out: EC50) was less than 4.48. The pEC50 (CfEcR-DEF mutant F48W; mutant F48W, read-out: EC50) was roughly 5.00, the “Rel Max FI” value (CfEcR-DEF mutant F48W; mutant F48W, relative to max fold induction of GS-E ligand) was 0.65 and the “Rel Max FI” value (CfEcR-DEF mutant T52P; mutant T52P) was 0.03. The pEC50 (CfEcR-DEF mutant T52P; mutant T52P, read-out: EC50) was less than 4.48, the “Rel Max FI” value (CfEcR-DEF mutant V128F; mutant V128F) was 0.03 and the pEC50 (CfEcR-DEF mutant V128F; mutant V128F, read-out: EC50) was less than 4.48. For the same compound, the “Rel Max FI” value (CfEcR-DEF mutant Y120M; mutant Y120M) was 0.04, the pEC50 (CfEcR-DEF mutant Y120M; mutant Y120M, read-out: EC50) was less than 4.48 and the pEC50 (CfEcR-DEF mutant F48Y; mutant F48Y, read-out: EC50) was roughly 5.00. For the same compound, the “Rel Max FI” value (CfEcR-DEF mutant F48Y; mutant F48Y, relative to max fold induction of GS-E ligand) was 0.33, the pEC50 (CfEcR-DEF mutant A110N; mutant A110N, read-out: EC50) was less than 4.48 and the “Rel Max FI” value (CfEcR-DEF mutant A110N; mutant A110N, relative to max fold induction of GS-E ligand) was 0. The “Rel Max FI” value (CfEcR-DEF mutant F109L; mutant F109L) was 0.03, the pEC50 (CfEcR-DEF mutant F109L; mutant F109L, read-out: EC50) was less than 4.48 and the “Rel Max FI” value (CfEcR-DEF mutant R95W; mutant R95W) was 0. The pEC50 (CfEcR-DEF mutant R95W; mutant R95W, read-out: EC50) was less than 4.48, the “Rel Max FI” value (CfEcR-DEF mutant F109N; mutant F109N) was 0 and the pEC50 (CfEcR-DEF mutant F109N; mutant F109N, read-out: EC50) was less than 4.48. For the same compound, the “Rel Max FI” value (CfEcR-DEF mutant L234I; mutant L234I) was 0.56, the pEC50 (CfEcR-DEF mutant L234I; mutant L234I, read-out: EC50) was roughly 5.15 and the “Rel Max FI” value (CfEcR-DEF mutant V96L; mutant V96L) was 0.49. For the same compound, the pEC50 (CfEcR-DEF mutant V96L; mutant V96L, read-out: EC50) was 5.13, the pEC50 (CfEcR-DEF mutant A110P; mutant A110P, read-out: EC50) was less than 4.48 and the “Rel Max FI” value (CfEcR-DEF mutant A110P; mutant A110P, relative to max fold induction of GS-E ligand) was 0. For the same compound, the “Rel Max FI” value (CfEcR-DEF mutant M125P; mutant M125P) was 0.7, the pEC50 (CfEcR-DEF mutant M125P; mutant M125P, read-out: EC50) was less than 4.48 and the pEC50 (CfEcR-DEF mutant T52L; mutant T52L, read-out: EC50) was 5.30. For the same compound, the “Rel Max FI” value (CfEcR-DEF mutant T52L; mutant T52L, relative to max fold induction of GS-E ligand) was 0.54, the pEC50 (CfEcR-DEF mutant F109W; mutant F109W, read-out: EC50) was 5.39 and the “Rel Max FI” value (CfEcR-DEF mutant F109W; mutant F109W, relative to max fold induction of GS-E ligand) was 0.08. For the same compound, the pEC50 (CfEcR-DEF mutant M54T; mutant M54T, read-out: EC50) was 5.02, the “Rel Max FI” value (CfEcR-DEF mutant M54T; mutant M54T, relative to max fold induction of GS-E ligand) was 0.5 and the pEC50 (CfEcR-DEF mutant V96S; mutant V96S, read-out: EC50) was roughly 5.70. For the same compound, the “Rel Max FI” value (CfEcR-DEF mutant V96S; mutant V96S, relative to max fold induction of GS-E ligand) was 0.92.

Cc1cc(C)cc(C(=O)N(NC(=O)c2cccc(C(C)C)c2C)C(C)(C)C)c1 [RG-102362, 3,5-Dimethyl-benzoic acid N-tert-butyl-N′-(3-isopropyl-2-methyl-benzoyl)-hydrazide] gave a pEC50 (CfEcR-DEF mutant V96E) of 5.73, an Emax (CfEcR-DEF mutant V96E; [1]) of 48% and a pEC50 (CfEcR-DEF mutant F109M) of 6.09. The Emax (CfEcR-DEF mutant F109M; [1]) was 60%, the pEC50 (CfEcR-DEF mutant W238E) was 5.46 and the Emax (CfEcR-DEF mutant W238E; [1]) was 45%. It also gave a pEC50 (CfEcR-DEF mutant F48W) of 6.11, an Emax (CfEcR-DEF mutant F48W; [1]) of 51% and a pEC50 (CfEcR-DEF mutant T52P) of roughly 5.22. The Emax (CfEcR-DEF mutant T52P; [1]) was 11%, the pEC50 (CfEcR-DEF mutant V128F; EC50, mutant V128F) was less than 4.48 and the Emax (CfEcR-DEF mutant V128F; [1]) was 234%. For the same compound, the pEC50 (CfEcR-DEF mutant Y120M) was roughly 5.00, the Emax (CfEcR-DEF mutant Y120M; [1]) was 13% and the pEC50 (CfEcR-DEF mutant F48Y) was 6.23. It also gave an Emax (CfEcR-DEF mutant F48Y; [1]) of 48%, a pEC50 (CfEcR-DEF mutant A110N) of 6.14 and an Emax (CfEcR-DEF mutant A110N; [1]) of 86%. For the same compound, the pEC50 (CfEcR-DEF mutant F109L) was roughly 5.60, the Emax (CfEcR-DEF mutant F109L; [1]) was 17% and the pEC50 (CfEcR-DEF mutant R95W) was roughly 5.10. The Emax (CfEcR-DEF mutant R95W; [1]) was 25%, the pEC50 (CfEcR-DEF mutant F109N) was 5.73 and the Emax (CfEcR-DEF mutant F109N; [1]) was 40%. It also gave a pEC50 (CfEcR-DEF mutant L234I) of 5.61, an Emax (CfEcR-DEF mutant L234I; [1]) of 44% and a pEC50 (CfEcR-DEF mutant V96L) of 5.57. For the same compound, the Emax (CfEcR-DEF mutant V96L; [1]) was 58%, the pEC50 (CfEcR-DEF mutant A110P) was 6.11 and the Emax (CfEcR-DEF mutant A110P; [1]) was 64%. It also gave a pEC50 (CfEcR-DEF mutant M125P) of less than 4.48, an Emax (CfEcR-DEF mutant M125P; [1]) of 78% and a pEC50 (CfEcR-DEF mutant T52L) of 6.48. For the same compound, the Emax (CfEcR-DEF mutant T52L; [1]) was 61%, the pEC50 (CfEcR-DEF mutant F109W) was 5.85 and the Emax (CfEcR-DEF mutant F109W; [1]) was 70%. For the same compound, the pEC50 (CfEcR-DEF mutant M54T) was 7.30, the Emax (CfEcR-DEF mutant M54T; [1]) was 66% and the pEC50 (CfEcR-DEF mutant V96S) was 5.68. It also gave an Emax (CfEcR-DEF mutant V96S; [1]) of 57%.
